Data as given in publication PMC11784839, “Monoaminergic neurotransmitters are bimodal effectors of tau aggregation” (Science Advances, 2025).

Target: tau (Homo sapiens, UniProt P10636)
Assay: MCE Phenols Library screening, tau biosensor cell seeding assay (AvZ)
Format: cell-based
Conditions: for Z repl 1 / Z Repl 2: Z score; for Z repl 1 / raw data 1: replicate 1; for Z Repl 2 / raw data 2: replicate 2; for AvZ (average z score of seeding, SDs from the mean level of seeding): 10 μM phenol in cell cultures, AD brain homogenate preincubated 16 hours, two biological replicates, positive = catalyzes seeding, negative = inhibits
[1] = average Z score of the two replicates, MCE Phenols Library screen
[2] = average puncta of the two replicates
[3] = average Z score of the two replicates, tau seeding
[4] = average Z score of two replicates, Phenols Library screen
[5] = average Z score of the two replicates, tau biosensor seeding, MCE Phenols Library screen

Sequence of tau (P10636 623-695 limits assumed): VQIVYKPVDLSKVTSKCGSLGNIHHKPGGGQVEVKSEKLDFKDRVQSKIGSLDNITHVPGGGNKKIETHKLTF

Compound | Z repl 1 | Z Repl 2 | av Z [1] | av puncta [2] | raw data 1 (puncta) | raw data 2 (puncta) | av Z [3] | av puncta (average of raw data 1 and 2) | AvZ (average z score of seeding, SDs from the mean level of seeding) | raw data 1 (raw puncta) | raw data 2 (raw puncta) | av Z [4] | av Z [5]
CC(C)=CC[C@@H](OC(=O)CC(C)(C)O)C1=CC(=O)c2c(O)ccc(O)c2C1=O [?-Hydroxyisovalerylshikonin] | -0.737 | -0.673 | -0.705 | 11543.5 | 17504.1 | 5582.9 | – | – | – | – | – | – | –
COc1cc(/C=C/c2ccc(O)c(O)c2)cc(OC)c1 [3'-Hydroxypterostilbene] | -0.14 | 0.484 | – | – | 24671.3 | 17933.3 | 0.172 | 21302.3 | – | – | – | – | –
COc1ccc(/C=C/C(=O)C(C)(C)C(=O)/C=C/c2ccc(OC)c(OC)c2)cc1OC [Tetramethylcurcumin] | -1.086 | -0.943 | -1.014 | – | 13309.5 | 2696.76 | – | 8003.14 | – | – | – | – | –
Oc1ccc2[nH]ccc2c1 [5-Hydroxyindole] | -0.683 | -0.549 | – | 12522.7 | 18144.2 | 6901.21 | – | – | -0.616 | – | – | – | –
COc1cc2c(cc1O)-c1c(OC)c(O)cc3c1[C@H](C2)NCC3 [Laetanine] | -0.508 | -0.181 | -0.344 | 15544.8 | – | – | – | – | – | 20251.6 | 10838.1 | – | –
CC(C)=CCc1c2ccoc2c(O)c2oc(=O)ccc12 [Alloimperatorin] | 0.545 | -0.475 | – | – | 32890.3 | 7695.05 | – | 20292.7 | – | – | – | 0.035 | –
CC(C)=CCc1c(-c2ccc(O)cc2O)oc2c([C@H]3C=C(C)C[C@@H](c4ccc(O)cc4O)[C@@H]3C(=O)c3ccc(O)cc3O)c(O)cc(O)c2c1=O [Kuwanon G] | 0.063 | 0.629 | – | – | 27102.4 | 19478.8 | 0.346 | 23290.6 | – | – | – | – | –
Oc1cccc(O)c1O [Pyrogallol] | -0.635 | -1.067 | – | – | 18727.1 | 1374.88 | – | 10051 | -0.851 | – | – | – | –
O=C(O)c1cc(O)c2c(c1)C(=O)c1cccc(O[C@@H]3O[C@H](CO)[C@@H](O)[C@H](O)[C@H]3O)c1C2=O [Rhein 8-Glucoside] | 0.64 | 0.434 | – | – | 34038.2 | 17399.4 | 0.537 | 25718.8 | – | – | – | – | –
COc1ccc(O)cc1 [Mequinol] | 0.5 | 0.017 | – | – | 32350 | 12942.5 | – | 22646.3 | 0.258 | – | – | – | –
O=c1cc(-c2ccc(O)c(O)c2)oc2cc(O[C@@H]3O[C@H](CO)[C@@H](O)[C@H](O)[C@H]3O)c(O)c(O)c12 [6-Hydroxyluteolin 7-glucoside] | -0.171 | -0.979 | -0.575 | 13301.5 | 24297.8 | 2305.25 | – | – | – | – | – | – | –
COc1cc(CCC(=O)CC(=O)CCc2ccc(O)c(OC)c2)ccc1O [Tetrahydrocurcumin] | 0.298 | -0.72 | -0.211 | 17498 | – | – | – | – | – | 29921.4 | 5074.48 | – | –
COc1cc(C[C@@H](CO)[C@H](CO)Cc2ccc(O)c(OC)c2)ccc1O [(+)-Secoisolariciresinol] | 0.313 | 1.018 | – | – | 30111.3 | 23639.2 | 0.666 | 26875.3 | – | – | – | – | –
COc1ccc(-c2cc(=O)c3c(O)cc(O[C@@H]4O[C@H](CO)[C@@H](O)[C@H](O)[C@H]4O[C@@H]4O[C@@H](C)[C@H](O)[C@@H](O)[C@H]4O)cc3o2)cc1O [Neodiosmin] | 1.202 | 0.25 | – | – | 40782.2 | 15434.5 | – | 28108.4 | – | – | – | – | 0.726
O=C(O)c1ccc(O)cc1O [2,4-Dihydroxybenzoic acid] | 0.635 | -0.383 | – | – | 33969.7 | 8671.41 | – | 21320.5 | 0.126 | – | – | – | –
O=c1cc(-c2ccc(O)c(O)c2)oc2c([C@@H]3O[C@H](CO)[C@@H](O)[C@H](O)[C@H]3O)c(O)cc(O)c12 [Orientin] | 0.558 | -0.368 | – | – | 33050.1 | 8839.87 | – | 20945 | – | – | – | 0.095 | –

Compound | Z repl 1 | Z Repl 2 | av Z [1] | av puncta [2] | raw data 1 (puncta) | raw data 2 (puncta) | av Z [3] | av puncta (average of raw data 1 and 2) | AvZ (average z score of seeding, SDs from the mean level of seeding) | raw data 1 (raw puncta) | raw data 2 (raw puncta) | av Z [4] | av Z [5]
O=C(OC[C@H]1OC(OC(=O)c2cc(O)c(O)c(O)c2)[C@H](OC(=O)c2cc(O)c(O)c(O)c2)[C@@H](OC(=O)c2cc(O)c(O)c(O)c2)[C@@H]1O)c1cc(O)c(O)c(O)c1 (stereo partly shown) [1,2,3,6-Tetragalloylglucose] | -1.751 | -1.021 | -1.386 | – | 5324.12 | 1864.38 | – | 3594.24 | – | – | – | – | –
C/C=C/c1cc(OC)c2c(c1)C(C)C(c1ccc(O)c(OC)c1)O2 (stereo not shown) [Dehydrodiisoeugenol] | 0.835 | 0.419 | – | – | 36377.1 | 17242.2 | 0.627 | 26809.6 | – | – | – | – | –
COc1cc2c(cc1O)-c1cc3ccc(OC)c(OC)c3c[n+]1CC2 [Columbamine] | 0.655 | 0.636 | – | – | 34211.5 | 19562.6 | 0.646 | 26887.1 | – | – | – | – | –
COc1cc(O)c2c(c1)O[C@H](c1cc(O)cc(O)c1)CC2=O [Blumeatin] | -0.753 | -0.754 | -0.753 | 11011.8 | 17305.9 | 4717.73 | – | – | – | – | – | – | –
CC(=O)O[C@@H](CC=C(C)C)C1=CC(=O)c2c(O)ccc(O)c2C1=O [Acetylalkannin] | -0.759 | -0.292 | -0.525 | 13443.1 | 17242.7 | 9643.51 | – | – | – | – | – | – | –
C[C@@H]1O[C@@H](Oc2c(-c3ccc(O)cc3)oc3cc(O[C@@H]4O[C@@H](C)[C@H](O)[C@@H](O)[C@H]4O[C@@H]4O[C@H](CO)[C@@H](O)[C@H](O)[C@H]4O)cc(O)c3c2=O)[C@H](O)[C@H](O)[C@H]1O [Grosvenorine] | 0.758 | 0.703 | – | – | 35445.3 | 20271.9 | – | 27858.6 | – | – | – | – | 0.73
O=C(O)C[C@@H]1C(=O)O[C@H]2[C@@H]3OC(=O)c4cc(O)c(O)c(O)c4-c4c(cc(O)c(O)c4O)C(=O)OC[C@H]2O[C@@H](OC(=O)c2cc(O)c(O)c(O)c2)[C@@H]3OC(=O)c2cc(O)c(O)c3c2[C@H]1[C@H](O)C(=O)O3 [Chebulagic acid] | -2.151 | – | -1.662 | – | 523.863 | 241.827 | – | 382.845 | – | – | – | – | –
Bavachinin | 0.618 | -0.383 | – | – | 33763.9 | 8675.17 | – | 21219.6 | – | – | – | 0.117 | –
O=c1c(O[C@@H]2O[C@H](CO)[C@@H](O)[C@H](O)[C@H]2O[C@@H]2O[C@H](CO)[C@@H](O)[C@H](O)[C@H]2O)c(-c2ccc(O)cc2)oc2cc(O)cc(O)c12 [Kaempferol 3-O-sophoroside] | -0.587 | 0.035 | -0.276 | 16225.3 | – | – | – | – | – | 19307.9 | 13142.7 | – | –
O=c1c(O)c(-c2ccc(O[C@@H]3O[C@H](CO)[C@@H](O)[C@H](O)[C@H]3O)c(O)c2)oc2cc(O)cc(O)c12 [Spiraeoside] | -1.012 | -0.12 | -0.566 | 12842 | 14202.4 | 11481.5 | – | – | – | – | – | – | –
O=C1c2c(O)cccc2[C@@H]([C@@H]2O[C@H](CO)[C@@H](O)[C@H](O)[C@H]2O)c2cc(CO)cc(O)c21 [Aloin B] | 0.434 | -0.315 | – | – | 31560.5 | 9397.5 | – | 20479 | – | – | – | 0.059 | –
O=C(CCc1ccc(O)cc1)c1c(O)cc(O[C@@H]2O[C@H](CO)[C@@H](O)[C@H](O)[C@H]2O)cc1O [Trilobatin] | 0.764 | -0.24 | – | – | 35522.1 | 10201.8 | 0.262 | 22862 | – | – | – | – | –
COc1cc2oc(-c3ccccc3)cc(=O)c2c(O)c1O [Negletein] | -1.009 | -0.535 | -0.772 | – | 14234.4 | 7055.07 | – | 10644.7 | – | – | – | – | –
CC(C)=CCc1c(O)c(CC=C(C)C)c2oc3c(O)cccc3c(=O)c2c1O [8-Deoxygartanin] | -0.784 | -0.654 | -0.719 | 11358 | 16933.5 | 5782.42 | – | – | – | – | – | – | –
COc1ccccc1O [Guaiacol] | -0.724 | -0.582 | – | 12102.3 | 17657.8 | 6546.75 | – | – | -0.653 | – | – | – | –
CCCCC[C@H](O)CC(=O)CCc1ccc(O)c(OC)c1 [[6]-Gingerol] | 0.385 | 0.874 | – | – | 30973.3 | 22095.4 | – | 26534.4 | – | – | – | – | –
